Test results as given in patent publication US8263598B2, “Substituted sulfonamide compounds” (Gruenenthal GmbH, priority 2008, dated 2012).

Assays:
[1] = biological target: T1, human B1R receptor (hB1R) (Homo sapiens, UniProt P46663); assay: FLIPR Ca2+ assay on human bradykinin 1 receptor (CHO K1 hB1R cells); type: cell-based; details: test substance 10 μM; CHO K1 cells with human B1R gene; agonist Lys-Des-Arg9-bradykinin 0.5 nM; compared to maximum achievable inhibition
T1 construct: host or cells: CHO K1 cells
T1 sequence (P46663 1-353): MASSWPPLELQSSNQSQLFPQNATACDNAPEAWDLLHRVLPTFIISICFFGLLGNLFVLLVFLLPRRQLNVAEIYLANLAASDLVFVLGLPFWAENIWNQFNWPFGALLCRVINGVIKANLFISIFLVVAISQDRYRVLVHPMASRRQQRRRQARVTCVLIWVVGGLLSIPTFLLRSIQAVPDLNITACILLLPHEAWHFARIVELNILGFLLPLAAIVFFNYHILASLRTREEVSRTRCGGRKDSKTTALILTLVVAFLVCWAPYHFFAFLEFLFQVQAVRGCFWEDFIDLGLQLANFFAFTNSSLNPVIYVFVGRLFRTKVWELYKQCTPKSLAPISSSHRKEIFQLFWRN
Outline: (§1)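 CHO K1 cells stably expressing human or rat B1R were loaded with Fluo-4 and tested at 10 μM compound. Ca²⁺ signal was read in FLIPR as % activation versus agonist. After 10 min, agonist was added (hB1R: Lys-Des-Arg9-bradykinin 0.5 nM; rB1R: Des-Arg9-bradykinin 100 nM), and % inhibition was taken relative to maximum achievable inhibition.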

[2] = biological target: T2, B1R receptor of rats (rB1R) (Rattus norvegicus, UniProt P97583); assay: FLIPR Ca2+ assay on rat bradykinin 1 receptor (CHO K1 rB1R cells); type: cell-based; details: test substance 10 μM; CHO K1 cells with B1R gene of rats; agonist Des-Arg9-bradykinin 100 nM; compared to maximum achievable inhibition
T2 construct: host or cells: CHO K1 cells
T2 sequence (P97583 1-337): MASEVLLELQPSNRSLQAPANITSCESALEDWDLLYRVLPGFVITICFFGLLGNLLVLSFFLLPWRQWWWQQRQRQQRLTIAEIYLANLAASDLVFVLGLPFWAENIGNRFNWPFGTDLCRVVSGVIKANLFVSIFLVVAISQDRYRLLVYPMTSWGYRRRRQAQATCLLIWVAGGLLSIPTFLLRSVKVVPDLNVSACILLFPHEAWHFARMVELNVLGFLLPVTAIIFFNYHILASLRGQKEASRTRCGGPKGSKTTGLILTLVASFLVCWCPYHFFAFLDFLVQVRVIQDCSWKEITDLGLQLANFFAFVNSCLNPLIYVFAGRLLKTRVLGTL
Outline: as §1

SMILES | inhibition at 10 µM [1] [%] | inhibition at 10 µM [2] [%] | hB1R [10 μM] % Inhibition [1] [%] | rB1R [10 μM] % Inhibition [2] [%]
COc1cc(C)c(S(=O)(=O)N(CCOCC(=O)N2CCn3c(CN(C)C)ccc3C2c2cccs2)Cc2ccccc2)c(C)c1C (stereo not drawn) [Example 121, N-benzyl-N-(2-(2-(6-((dimethylamino)methyl)-1-(thiophen-2-yl)-3,4-dihydropyrrolo[1,2-a]pyrazin-2(1H)-yl)-2-oxoethoxy)ethyl)-4-methoxy-2,3,6-trimethylbenzene-sulfonamide] | 101 | 102 | – | –
CCCC1c2cccn2CCN1C(=O)COCCN(Cc1ccccc1)S(=O)(=O)c1c(C)cc(OC)c(C)c1C (stereo not drawn) [Example 123, N-benzyl-4-methoxy-2,3,6-trimethyl-N-(2-(2-oxo-2-(1-propyl-3,4-dihydropyrrolo[1,2-a]pyrazin-2(1H)-yl)ethoxy)ethyl)benzenesulfonamide] | 41 | 86 | – | –
COc1cc(C)c(S(=O)(=O)N(CCOCC(=O)N2CCn3cccc3C2C(C)C)Cc2ccccc2)c(C)c1C (stereo not drawn) [Example 124, N-benzyl-N-(2-(2-(1-isopropyl-3,4-dihydropyrrolo[1,2-a]pyrazin-2(1H)-yl)-2-oxoethoxy)ethyl)-4-methoxy-2,3,6-trimethylbenzenesulfonamide] | 58 | 96 | – | –
COc1cc(C)c(S(=O)(=O)N(CCOCC(=O)N2CCn3cccc3C2CCc2ccccc2)Cc2ccccc2)c(C)c1 (stereo not drawn) [Example 125, N-benzyl-4-methoxy-2,6-dimethyl-N-(2-(2-oxo-2-(1-phenethyl-3,4-dihydropyrrolo[1,2-a]pyrazin-2(1H)-yl)ethoxy)ethyl)benzenesulfonamide] | 25 | 78 | – | –
COc1cc(C)c(S(=O)(=O)N(CCOCC(=O)N2CCn3c(CN(C)C)ccc3C2c2ccccc2)Cc2ccccc2)c(C)c1 (stereo not drawn) [Example 126, N-benzyl-N-(2-(2-(6-((dimethylamino)methyl)-1-phenyl-3,4-dihydropyrrolo[1,2-a]pyrazin-2(1H)-yl)-2-oxoethoxy)ethyl)-4-methoxy-2,6-dimethylbenzenesulfonamide] | 101 | 102 | – | –
COc1cc(C)c(S(=O)(=O)N(CCOCC(=O)N2CCn3c(CN4CCCC4)ccc3C2c2ccccc2)Cc2ccccc2)c(C)c1 (stereo not drawn) [Example 127, N-benzyl-4-methoxy-2,6-dimethyl-N-(2-(2-oxo-2-(1-phenyl-6-(pyrrolidin-1-ylmethyl)-3,4-dihydropyrrolo[1,2-a]pyrazin-2(1H)-yl)ethoxy)ethyl)benzene-sulfonamide] | 99 | 102 | – | –
COc1cc(C)c(S(=O)(=O)N(CCOCC(=O)N2CCn3c(CN4CCCCC4)ccc3C2c2ccccc2)Cc2ccccc2)c(C)c1 (stereo not drawn) [Example 128, N-benzyl-4-methoxy-2,6-dimethyl-N-(2-(2-oxo-2-(1-phenyl-6-(piperidin-1-ylmethyl)-3,4-dihydropyrrolo[1,2-a]pyrazin-2(1H)-yl)ethoxy)ethyl)benzene-sulfonamide] | 101 | 103 | – | –
COc1cc(C)c(S(=O)(=O)N(CCOCC(=O)N2CCn3c(CN(C)C)ccc3C2Cc2ccccc2)Cc2ccccc2)c(C)c1 (stereo not drawn) [Example 129, N-benzyl-N-(2-(2-(1-benzyl-6-((dimethylamino)methyl)-3,4-dihydropyrrolo[1,2-a]pyrazin-2-(1H)-yl)-2-oxoethoxy)ethyl)-4-methoxy-2,6-dimethylbenzene-sulfonamide] | – | – | 100 | 101
COc1cc(C)c(S(=O)(=O)N(CCOCC(=O)N2CCn3c(CN(C)C)ccc3C2c2cccs2)Cc2ccccc2)c(C)c1 (stereo not drawn) [Example 130, N-benzyl-N-(2-(2-(6-((dimethylamino)methyl)-1-(thiophen-2-yl)-3,4-dihydropyrrolo[1,2-a]pyrazin-2(1H)-yl)-2-oxoethoxy)ethyl)-4-methoxy-2,6-dimethyl-benzenesulfonamide] | 104 | 102 | – | –
CCC1c2ccc(CN(C)C)n2CCN1C(=O)COCCN(Cc1ccccc1)S(=O)(=O)c1c(C)cc(OC)cc1C (stereo not drawn) [Example 131, N-benzyl-N-(2-(2-(6-((dimethylamino)methyl)-1-ethyl-3,4-dihydropyrrolo[1,2-a]pyrazin-2(1H)-yl)-2-oxoethoxy)ethyl)-4-methoxy-2,6-dimethylbenzene-sulfonamide] | 101 | 101 | – | –
CCC1c2cccn2CCN1C(=O)COCCN(Cc1ccccc1)S(=O)(=O)c1c(C)cc(OC)cc1C (stereo not drawn) [Example 132, N-benzyl-N-(2-(2-(1-ethyl-3,4-dihydropyrrolo[1,2-a]pyrazin-2(1H)-yl)-2-oxoethoxy)ethyl)-4-methoxy-2,6-dimethylbenzenesulfonamide] | 100 | 102 | – | –
COc1cc(C)c(S(=O)(=O)N(C)CCOCC(=O)N2CCn3cccc3C2CCc2ccccc2)c(C)c1 (stereo not drawn) [Example 133, 4-methoxy-N,2,6-trimethyl-N-(2-(2-oxo-2-(1-phenethyl-3,4-dihydropyrrolo[1,2-a]pyrazin-2(1H)-yl)ethoxy)ethyl)benzenesulfonamide] | 105 | 102 | – | –
CCCCC1c2ccc(CN(C)C)n2CCN1C(=O)COCCN(C)S(=O)(=O)c1c(C)cc(OC)cc1C (stereo not drawn) [Example 134, N-(2-(2-(1-butyl-6-((dimethylamino)methyl)-3,4-dihydropyrrolo[1,2-a]pyrazin-2(1H)-yl)-2-oxoethoxy)ethyl)-4-methoxy-N,2,6-trimethylbenzenesulfonamide] | 104 | 103 | – | –
CCC1c2cccn2CCN1C(=O)COCCN(C)S(=O)(=O)c1c(C)cc(OC)cc1C (stereo not drawn) [Example 135, N-(2-(2-(1-ethyl-3,4-dihydropyrrolo[1,2-a]pyrazin-2(1H)-yl)-2-oxoethoxy)ethyl)-4-methoxy-N,2,6-trimethylbenzenesulfonamide] | 104 | 102 | – | –
CCCC1c2cccn2CCN1C(=O)COCCN(C)S(=O)(=O)c1c(C)cc(OC)cc1C (stereo not drawn) [Example 136, 4-methoxy-N,2,6-trimethyl-N-(2-(2-oxo-2-(1-propyl-3,4-dihydropyrrolo[1,2-a]-pyrazin-2(1H)-yl)ethoxy)ethyl)benzenesulfonamide] | 104 | 103 | – | –
COc1cc(C)c(S(=O)(=O)N(C)CCOCC(=O)N2CCn3cccc3C2C(C)C)c(C)c1 (stereo not drawn) [Example 137, N-(2-(2-(1-isopropyl-3,4-dihydropyrrolo[1,2-a]pyrazin-2(1H)-yl)-2-oxoethoxy)ethyl)-4-methoxy-N,2,6-trimethylbenzenesulfonamide] | 104 | 102 | – | –
CCC1c2ccc(C)n2CCN1C(=O)COCCN(C)S(=O)(=O)c1c(C)cc(OC)cc1C (stereo not drawn) [Example 138, N-(2-(2-(1-ethyl-6-methyl-3,4-dihydropyrrolo[1,2-a]pyrazin-2(1H)-yl)-2-oxoethoxy)ethyl)-4-methoxy-N,2,6-trimethylbenzenesulfonamide] | 104 | 102 | – | –
Cc1cc(C)c(S(=O)(=O)N(C)CCOCC(=O)N2CCn3c(CN(C)C)ccc3C2c2ccccc2)c(C)c1 (stereo not drawn) [Example 139, N-(2-(2-(6-((dimethylamino)methyl)-1-phenyl-3,4-dihydropyrrolo[1,2-a]pyrazin-2(1H)-yl)-2-oxoethoxy)ethyl)-N,2,4,6-tetramethylbenzenesulfonamide] | 102 | 103 | – | –
Cc1cc(C)c(S(=O)(=O)N(C)CCOCC(=O)N2CCn3c(CN4CCCC4)ccc3C2c2ccccc2)c(C)c1 (stereo not drawn) [Example 140, N,2,4,6-tetramethyl-N-(2-(2-oxo-2-(1-phenyl-6-(pyrrolidin-1-ylmethyl)-3,4-dihydropyrrolo[1,2-a]pyrazin-2(1H)-yl)ethoxy)ethyl)benzenesulfonamide] | 102 | 101 | – | –
Cc1cc(C)c(S(=O)(=O)N(C)CCOCC(=O)N2CCn3c(CN4CCCCC4)ccc3C2c2ccccc2)c(C)c1 (stereo not drawn) [Example 141, N,2,4,6-tetramethyl-N-(2-(2-oxo-2-(1-phenyl-6-(piperidin-1-ylmethyl)-3,4-dihydropyrrolo[1,2-a]pyrazin-2(1H)-yl)ethoxy)ethyl)benzenesulfonamide] | 103 | 101 | – | –
Cc1cc(C)c(S(=O)(=O)N(C)CCOCC(=O)N2CCn3c(CN4CCOCC4)ccc3C2c2ccccc2)c(C)c1 (stereo not drawn) [Example 142, N,2,4,6-tetramethyl-N-(2-(2-(6-(morpholinomethyl)-1-phenyl-3,4-dihydro-pyrrolo[1,2-a]pyrazin-2(1H)-yl)-2-oxoethoxy)ethyl)benzenesulfonamide] | 103 | 101 | – | –
